These results are taken from ChEMBL document CHEMBL1201862, “PubChem BioAssay data set” (2004).

What all share (test): growth of human tumour cells (NCI), 48 h
The test system of test [1] is A498.
Test [2] has as its system ACHN.
In test [3] the test system is DU-145.
For test [4], the system named is HL-60.
The test system of test [5] is HOP-62.
The subject of test [6] is M14.
In test [7] the test system is MCF7.
In test [8] the test system is NCI-H23.
In test [9] the test system is OVCAR-3.
Test [10] has as its system OVCAR-8.
For test [11], the system named is RXF 393.
The subject of test [12] is SF-539.
Test [13] relates to SK-MEL-5.
For test [14], the system named is SNB-75.
For test [15], the system named is SW-620.
In test [16] the test system is TK-10.
Test [17] relates to UACC-257.
Test [18] deals with UO-31.
Test [19] has as its system MOLT-4.
In test [20] the test system is SK-MEL-2.

SMILES strings stand for the structures.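 These data come from cells grown in 96-well plates and exposed to compound for 48 hours at five concentrations. GI50 marks 50% less growth.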 The source made the active and inactive calls. Rule as the data show it: active = GI50 up to about 1.1 µM and inactive = higher. Square brackets hold non-standard residues; d marks the D form. Peptide text beside a SMILES is read from it. Ac5c = NC1(C(=O)O)CCCC1 A value given as a limit tells only on which side of the number the result lay.

For `CC1=NN(C(=O)c2ccccc2O)C(=O)/C1=C/c1ccc([N+](=O)[O-])cc1`, the GI50 in test [1] was 0.0419 µM (active); in test [2], 0.106 µM (active); in test [3], 0.481 µM (active); in test [4] it was 0.508 µM (active); in test [5] it was 0.536 µM (active); in [6], 0.437 µM (active). Also, the GI50 in test [7] is 0.726 µM (active); in test [8] it was 0.177 µM (active); in [9], 0.172 µM (active); in test [10], 0.203 µM (active); in test [11], < 0.01 µM (active); in [12], 0.0951 µM (active). Further, the GI50 was 0.239 µM (active) in test [13]; 0.248 µM (active) in test [14]; 0.738 µM (active) in test [15]; > 24.2 µM (inactive) in [16]; 1.91 µM (inactive) in test [17]; 0.103 µM (active) in test [18].
As to `Cc1c(CNc2ccc(C(=O)NC(CC(=O)O)C(=O)O)cc2)ccc2nc(N)nc(N)c12` (stereo not drawn), the GI50 in test [1] was 0.219 µM (active); in test [2], < 0.01 µM (active); in [3] it was < 0.01 µM (active); in test [4] it was < 0.01 µM (active); in [5], < 0.0103 µM (active); in [6], < 0.215 µM (active). In addition, the GI50 is < 0.01 µM (active) in [7]; < 0.0157 µM (active) in [19]; < 0.018 µM (active) in test [8]; < 0.01 µM (active) in test [10]; 5.04 µM (inactive) in [11]; 0.0127 µM (active) in [12]. Further, the GI50 in [20] is > 100 µM (inactive); in test [13], 0.021 µM (active); in test [14], 32.5 µM (inactive); in [15], < 0.01 µM (active); in test [16], 1.86 µM (inactive); in test [17] it was 0.605 µM (active). Moreover, the GI50 in test [18] was < 0.018 µM (active).
As for `O=C1/C(=C/c2cccc(Oc3ccccc3)c2)N=C(c2ccccc2)N1c1nc2ccc(Sc3ccccc3)cc2[nH]1`, the GI50 in [1] is 26.1 µM (inactive); in test [2], 54.3 µM (inactive); in test [3], 27.3 µM (inactive); in [4], 20.4 µM (inactive); in test [5], 28.4 µM (inactive); in test [6], 24.3 µM (inactive). Also, the GI50 was 27.7 µM (inactive) in [7]; 33.7 µM (inactive) in [19]; 12.1 µM (inactive) in [8]; 15.8 µM (inactive) in test [9]; 29.9 µM (inactive) in test [10]; 24.8 µM (inactive) in test [11]. Also, the GI50 in test [20] was 17.3 µM (inactive); in [13], 24.4 µM (inactive); in test [14] it was 18.2 µM (inactive); in test [15], 29.4 µM (inactive); in [16], 25.2 µM (inactive); in [17] it was 29.4 µM (inactive). Further, the GI50 in test [18] was 50.1 µM (inactive).
For the compound `COc1cccc(C=C2N=C(C)N(n3c(-c4ccccc4)nc4ccccc4c3=O)C2=O)c1`, the GI50 in [1], in test [2], in test [3], in [4], in test [5] and in test [6] was > 100 µM (inactive) in each case. Also, the GI50 in test [7] was 83.4 µM (inactive); in [19] it was 94.4 µM (inactive); in [8], > 100 µM (inactive); in test [10] it was > 100 µM (inactive); in test [12], > 100 µM (inactive); in test [13] it was > 100 µM (inactive). The GI50 in test [14] is 56.1 µM (inactive); in test [15] it was > 100 µM (inactive); in test [16], > 100 µM (inactive); in [17], > 100 µM (inactive); in test [18], > 100 µM (inactive).
For `O=C(Cn1c(=O)oc2ccc(C(=O)c3ccc(F)cc3)cc21)c1ccc([N+](=O)[O-])cc1`, the GI50 in test [1] was 25.5 µM (inactive); in [2], 35 µM (inactive); in [3], 46.7 µM (inactive); in test [4], 8.2 µM (inactive); in [5], 54.5 µM (inactive); in test [6], 13 µM (inactive). Besides, the GI50 in test [7] was 31.7 µM (inactive); in [19], 18.2 µM (inactive); in test [8], 45.6 µM (inactive); in test [10], 25.8 µM (inactive); in test [11] it was 27.3 µM (inactive); in test [12], 41.1 µM (inactive). Besides, the GI50 in test [20] was 20.2 µM (inactive); in test [13] it was 15.7 µM (inactive); in [14], 36.9 µM (inactive); in test [15], 36.7 µM (inactive); in [16], 36.6 µM (inactive); in test [17], 60.3 µM (inactive). Besides, the GI50 in test [18] is 19.6 µM (inactive).
Regarding `Cc1cn(CC2=NCC(C)(C)N2)c(=O)[nH]c1=O`, the GI50 in [1], in test [2], in test [3], in test [5], in test [6] and in test [7] was > 100 µM (inactive) throughout. For the same compound, the GI50 in test [19], in test [8], in [10], in test [11], in [20] and in [13] was > 100 µM (inactive) each time. Further, the GI50 in test [14], in test [15], in test [16], in test [17] and in test [18] was > 100 µM (inactive) throughout.
Consider `CSC(=N/C=C/c1ccccc1)SC`, for which the GI50 in [1] is > 100 µM (inactive); in test [2], > 100 µM (inactive); in test [3], > 100 µM (inactive); in test [4] it was 49.9 µM (inactive); in test [5], > 100 µM (inactive); in test [6], > 100 µM (inactive). The GI50 in [7] is > 100 µM (inactive); in [19] it was > 100 µM (inactive); in test [8], > 100 µM (inactive); in test [9] it was 51.4 µM (inactive); in [10], > 100 µM (inactive); in test [11], 25.2 µM (inactive). Besides, the GI50 in [12], in test [20], in test [14], in test [15], in test [17] and in [18] was > 100 µM (inactive) each time.
For `Cc1cc(C)c2c(=O)n(CN3CC4Nc5ccccc5C4C3)sc2n1` (stereo not drawn), the GI50 in test [1] was 37.9 µM (inactive); in test [2], 17.9 µM (inactive); in test [3], 21.1 µM (inactive); in test [4], 25.6 µM (inactive); in test [5], 35.6 µM (inactive); in test [6] it was 23.8 µM (inactive). In addition, the GI50 in test [7] was 32.1 µM (inactive); in [19], 29.6 µM (inactive); in test [8] it was 22 µM (inactive); in test [9] it was 33.5 µM (inactive); in test [10] it was 21.2 µM (inactive); in test [11] it was 22.8 µM (inactive). Further, the GI50 in [12] was 19.9 µM (inactive); in [20], 22.5 µM (inactive); in test [13] it was 30.2 µM (inactive); in [15] it was 22.8 µM (inactive); in test [16], 19.4 µM (inactive); in [17], 15.5 µM (inactive). In test [18], the GI50 is 16.3 µM (inactive).
Take `O=[N+]([O-])C(=C/c1cccc2ccccc12)/C(=C\c1cccc2ccccc12)[N+](=O)[O-]`: the GI50 is 19.3 µM (inactive) in test [1]; 2.13 µM (inactive) in [2]; 2.84 µM (inactive) in test [3]; 2.74 µM (inactive) in test [5]; 2.19 µM (inactive) in test [6]; 2.99 µM (inactive) in [7]. The GI50 in test [19] was 0.984 µM (active); in test [8], 1.98 µM (inactive); in test [9], 4.02 µM (inactive); in test [10], 2.42 µM (inactive); in test [11] it was 1.99 µM (inactive); in test [12], 2.21 µM (inactive). The GI50 was 9.73 µM (inactive) in [20]; 2.9 µM (inactive) in test [13]; 6.95 µM (inactive) in test [14]; 1.89 µM (inactive) in test [15]; 2.17 µM (inactive) in test [16]; 2.32 µM (inactive) in [17]. Further, in test [18], the GI50 was 1.85 µM (inactive).
As for `NCC(=O)NC1(C(=O)O)CCCC1` (H-Gly-[Ac5c]-OH), the GI50 in test [1], in test [2], in test [3], in test [5], in test [6] and in test [7] was > 100 µM (inactive) in each case. The GI50 in test [19], in test [8], in test [9], in test [10], in [11] and in [12] was > 100 µM (inactive) in each case. The GI50 in test [20], in [13], in [14], in test [15], in test [16] and in test [17] was > 100 µM (inactive) in each case. Also, the GI50 in test [18] was > 100 µM (inactive).
Take `O=C(NCCN(CCNC(=O)c1cccc(O)c1O)CCNC(=O)c1cccc(O)c1O)c1cccc(O)c1O` [TRENCAM]: the GI50 is 51.9 µM (inactive) in test [1]; 4.2 µM (inactive) in [2]; 6.98 µM (inactive) in test [3]; 8.02 µM (inactive) in [4]; 6.59 µM (inactive) in test [5]; 5.55 µM (inactive) in [6]. The GI50 in test [7] was 9.55 µM (inactive); in test [8] it was 11.5 µM (inactive); in [9] it was 2.69 µM (inactive); in test [10] it was 3.15 µM (inactive); in [11], 7.87 µM (inactive); in [12], 3.85 µM (inactive). Moreover, the GI50 was 33.2 µM (inactive) in test [20]; 2.75 µM (inactive) in test [13]; 22.2 µM (inactive) in test [14]; 2.4 µM (inactive) in test [15]; > 56.1 µM (inactive) in test [16]; 19.5 µM (inactive) in test [17]. For the same compound, in test [18], the GI50 is 14.9 µM (inactive).
